Assay results as given in patent US20080268076A1, “Composition for Inhibiting Acyl-Coa:Cholesterol Acyltransferase” (priority 2005, published 2008).

What follows are compounds tested on acyl-CoA:cholesterol acyltransferase (ACAT) (assay: Assay for ACAT activity with [1-14C]oleoyl-CoA and rat liver microsomal enzyme). Details: ACAT inhibition, compared with the positive control obovatol.
Experimental: The livers were removed from Male Sprague-Dawley rats (250-300 g), washed with microsome buffer A (0.25 M sucrose, 1 mM EDTA, 0.01 M Tris-HCl, pH 7.4), finely fractioned with scissors, and homogenized using a Teflon-glass homogenizer.
A reaction solution was prepared by mixing 10.0 μl of the sample, 4.0 μl of a rat liver microsomal enzyme of rat, 20.0 μl of an assay buffer [0.5 M KH2PO4, 10 mM DTT, pH 7.4], 15.0 μl of 40 mg/me BSA (essentially fatty acid free), 2.0 μl of 20 mg/me cholesterol, and 41.0 μl of distilled water, and subjected to pre-reaction at 37° C. for 20 min. To this enzymatic solution was added 8.0 μl of [1-^14C]oleoyl-CoA (0.05 μCi, final conc. 10 μM), and enzyme reaction was carried out at 37° C. for 25 min and terminated with 1 ml of isopropanol-heptane (4:1 v/v). Following the addition of 0.6 ml of heptane and 0.4 ml of five fold-diluted assay buffer, centrifugation was performed to separate the organic solvent. 100 μl of the supernatant was mixed well with 3 ml of Lipoluma scintillation cocktail and radioactivity was measured using a liquid scintillation counter.
Activity of inhibiting ACAT was quantified as radioactivity detected in the product of the reaction between the radio-labeled substrate and the enzyme in the presence of the assay samples, and percentage activity inhibition was calculated according to Equation 1 as follows.
CPM (T): CPM detected upon co-existence of sample and enzyme
CPM (C1): CPM upon existence of enzyme alone in the absence of sample
CPM (C2): CPM detected upon existence of sample alone in the absence of enzyme
CPM (B): CPM detected in the absence of both enzyme and sample.
For CC(C)CNC(=O)/C=C/C=C/CCCC/C=C/c1ccc2c(c1)OCO2 [Chemical Formula 2, pipercide], the “inhibitory activity relative to obovatol” value was 12 times.

Same assay, conditions: read-out: IC50 against ACAT; rat liver microsomal enzyme
CC(C)CNC(=O)/C=C/C=C/CC/C=C/c1ccc2c(c1)OCO2 [Chemical Formula 1, retrofractamide A] showed an IC50 of 24.5 µM.
Work on CC(C)CNC(=O)/C=C/C=C/CCCC/C=C/c1ccc2c(c1)OCO2 [Chemical Formula 2, pipercide] yielded an IC50 of 3.7 µM.
Compound O=C(/C=C/CCCCCCc1ccc2c(c1)OCO2)N1CCCCC1 [Chemical Formula 3, piperrolein B] has an IC50 of 87.5 µM.
With CC(C)CNC(=O)/C=C/CCCCCC/C=C/c1ccc2c(c1)OCO2 [Chemical Formula 4, piperchabamide D] the IC50 was 11.5 µM.
CCCCC/C=C/C=C/C(=O)NCC(C)C [Chemical Formula 5, pellitorin] was tested, and the IC50 was 40.4 µM.
With obovatol [reference compound] the IC50 was 44 µM.
